Test results: ChEMBL document CHEMBL1201862, “PubChem BioAssay data set” (2004)
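Five concentrations, 48 hours, 96-well plates. The concentration for 50% growth inhibition is given as GI50.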 Activity calls are given as the source filed them. No stated cut-off is given here; in the data, active = GI50 up to about 1.1 µM and inactive = higher.

How the values were obtained:
Test in all cases: NCI anticancer screen, dose series, 48 h
[1] = system: 786-0
[2] = system: A549
[3] = system: HCT-15
[4] = system: HL-60
[5] = system: HOP-92
[6] = system: M14
[7] = system: MDA-MB-231
[8] = system: MOLT-4
[9] = system: NCI-H226
[10] = system: OVCAR-3
[11] = system: OVCAR-8
[12] = system: RXF 393
[13] = system: SF-268
[14] = system: SK-MEL-28
[15] = system: SNB-75
[16] = system: SW-620
[17] = system: UACC-257
[18] = system: UO-31
[19] = system: HCC 2998

## O=[N+]([O-])c1ccc(/C=N/n2c(CO)nc3ccccc32)o1
[1]
  GI50: 4.04 µM (inactive)
[2]
  GI50: 10.5 µM (inactive)
[3]
  GI50: 2.84 µM
[4]
  GI50: 2.3 µM (inactive)
[5]
  GI50: 3.51 µM (inactive)
[6]
  GI50: 4.17 µM (inactive)
[7]
  GI50: 5.36 µM (inactive)
[8]
  GI50: 1.1 µM (active)
[9]
  GI50: 15.1 µM (inactive)
[10]
  GI50: 2.22 µM (inactive)
[11]
  GI50: 10.3 µM (inactive)
[12]
  GI50: 5.07 µM (inactive)
[13]
  GI50: 10.4 µM (inactive)
[14]
  GI50: 3.52 µM (inactive)
[15]
  GI50: 24.6 µM (inactive)
[16]
  GI50: 5.71 µM (inactive)
[17]
  GI50: 2.44 µM (inactive)
[18]
  GI50: 8.32 µM (inactive)

## O=C1CC(c2ccc(O)cc2)C2(O1)C(=O)OC(C(O)CO)C2O (stereo not given)
[1]
  GI50: > 100 µM (inactive)
[3]
  GI50: > 100 µM
[4]
  GI50: > 100 µM (inactive)
[6]
  GI50: > 100 µM (inactive)
[7]
  GI50: > 100 µM (inactive)
[8]
  GI50: > 100 µM (inactive)
[9]
  GI50: > 100 µM (inactive)
[10]
  GI50: > 100 µM (inactive)
[11]
  GI50: > 100 µM (inactive)
[12]
  GI50: > 100 µM (inactive)
[13]
  GI50: > 100 µM (inactive)
[14]
  GI50: > 100 µM (inactive)
[15]
  GI50: > 100 µM (inactive)
[16]
  GI50: > 100 µM (inactive)
[17]
  GI50: > 100 µM (inactive)
[18]
  GI50: > 100 µM (inactive)

## Clc1ccccc1NN(Cc1ccccn1)c1ccccc1Cl
[1]
  GI50: 16.9 µM (inactive)
[2]
  GI50: 16.7 µM (inactive)
[3]
  GI50: 24.9 µM
[4]
  GI50: 18.5 µM (inactive)
[5]
  GI50: 16.1 µM (inactive)
[6]
  GI50: 18.5 µM (inactive)
[7]
  GI50: 23.4 µM (inactive)
[8]
  GI50: 17.3 µM (inactive)
[9]
  GI50: 16.2 µM (inactive)
[10]
  GI50: 18.1 µM (inactive)
[11]
  GI50: 21.2 µM (inactive)
[12]
  GI50: 14.9 µM (inactive)
[13]
  GI50: 22.7 µM (inactive)
[14]
  GI50: 20.5 µM (inactive)
[15]
  GI50: 20.1 µM (inactive)
[16]
  GI50: 17.7 µM (inactive)
[18]
  GI50: 20.4 µM (inactive)

## O=NC1c2cccc3cccc(c23)C1N=O (stereo not given)
[1]
  GI50: 12.9 µM (inactive)
[2]
  GI50: 2.43 µM (inactive)
[3]
  GI50: 1.79 µM
[4]
  GI50: 2.5 µM (inactive)
[5]
  GI50: 7.11 µM (inactive)
[6]
  GI50: 12 µM (inactive)
[8]
  GI50: 0.612 µM (active)
[10]
  GI50: 2.69 µM (inactive)
[11]
  GI50: 2.07 µM (inactive)
[12]
  GI50: 3.51 µM (inactive)
[13]
  GI50: 10.2 µM (inactive)
[15]
  GI50: 9.79 µM (inactive)
[16]
  GI50: 2.45 µM (inactive)
[17]
  GI50: 12.9 µM (inactive)
[18]
  GI50: 2.76 µM (inactive)

## NCCCN1CCN(c2ccccc2)CC1
[1]
  GI50: > 100 µM (inactive)
[2]
  GI50: > 100 µM (inactive)
[3]
  GI50: > 100 µM
[5]
  GI50: 86.3 µM (inactive)
[6]
  GI50: 35.3 µM (inactive)
[7]
  GI50: > 100 µM (inactive)
[8]
  GI50: 79.3 µM (inactive)
[9]
  GI50: > 100 µM (inactive)
[10]
  GI50: 10.7 µM (inactive)
[11]
  GI50: > 100 µM (inactive)
[12]
  GI50: > 100 µM (inactive)
[13]
  GI50: > 100 µM (inactive)
[14]
  GI50: > 100 µM (inactive)
[15]
  GI50: > 100 µM (inactive)
[17]
  GI50: > 100 µM (inactive)
[18]
  GI50: > 100 µM (inactive)

## Nc1nc(N)c2nc(CNc3ccc(C(=O)NC(CCCCNC(=O)c4ccccc4C(=O)O)C(=O)O)cc3)cnc2n1 (stereo not given)
[1]
  GI50: 0.01 µM (active)
[2]
  GI50: 0.01 µM (active)
[19]
  GI50: 0.01 µM (active)
[3]
  GI50: 0.01 µM
[5]
  GI50: 0.445 µM (active)
[6]
  GI50: 0.01 µM (active)
[8]
  GI50: 0.01 µM (active)
[9]
  GI50: > 100 µM (inactive)
[10]
  GI50: > 100 µM (inactive)
[11]
  GI50: 0.01 µM (active)
[12]
  GI50: 0.01 µM (active)
[13]
  GI50: 0.01 µM (active)
[14]
  GI50: < 0.0275 µM (active)
[16]
  GI50: 0.01 µM (active)
[18]
  GI50: 0.00776 µM (active)

## c1ccc(C(CCN2CC3CCC(CC3)C2)c2ccccc2)cc1
[1]
  GI50: 17.3 µM (inactive)
[2]
  GI50: 31.2 µM (inactive)
[3]
  GI50: 21.8 µM
[5]
  GI50: 22.9 µM (inactive)
[6]
  GI50: 14.3 µM (inactive)
[7]
  GI50: 18.9 µM (inactive)
[8]
  GI50: 18.2 µM (inactive)
[9]
  GI50: 19.6 µM (inactive)
[10]
  GI50: 20.2 µM (inactive)
[11]
  GI50: 28.6 µM (inactive)
[12]
  GI50: 18.8 µM (inactive)
[13]
  GI50: 25.6 µM (inactive)
[14]
  GI50: 41.1 µM (inactive)
[15]
  GI50: 24.2 µM (inactive)
[16]
  GI50: 29.9 µM (inactive)
[17]
  GI50: 16.2 µM (inactive)
[18]
  GI50: 14.9 µM (inactive)

## Nc1nc(Cl)cc(NCCCCCNc2cc(Cl)nc(N)n2)n1
[1]
  GI50: > 100 µM (inactive)
[2]
  GI50: 42 µM (inactive)
[19]
  GI50: > 100 µM (inactive)
[3]
  GI50: 73.6 µM
[4]
  GI50: 27.3 µM (inactive)
[5]
  GI50: 28.2 µM (inactive)
[6]
  GI50: 88.3 µM (inactive)
[8]
  GI50: 7.48 µM (inactive)
[9]
  GI50: 41.4 µM (inactive)
[10]
  GI50: 42 µM (inactive)
[11]
  GI50: 71.8 µM (inactive)
[12]
  GI50: 58.3 µM (inactive)
[13]
  GI50: 29.1 µM (inactive)
[14]
  GI50: 75 µM (inactive)
[15]
  GI50: 72.3 µM (inactive)
[16]
  GI50: > 100 µM (inactive)
[17]
  GI50: 46.8 µM (inactive)
[18]
  GI50: > 100 µM (inactive)

## O=C1C(c2c(O)[nH]c3ccc(I)cc23)=Nc2ccccc21
[1]
  GI50: 2.02 µM (inactive)
[2]
  GI50: 3.84 µM (inactive)
[3]
  GI50: 7.21 µM
[4]
  GI50: > 100 µM (inactive)
[5]
  GI50: 3.24 µM (inactive)
[6]
  GI50: 14 µM (inactive)
[7]
  GI50: 2.65 µM (inactive)
[8]
  GI50: 49.2 µM (inactive)
[9]
  GI50: 2.55 µM (inactive)
[10]
  GI50: 5.71 µM (inactive)
[11]
  GI50: 2.15 µM (inactive)
[12]
  GI50: 3.24 µM (inactive)
[13]
  GI50: 4.07 µM (inactive)
[14]
  GI50: 11.2 µM (inactive)
[15]
  GI50: 4.23 µM (inactive)
[16]
  GI50: 13.2 µM (inactive)
[17]
  GI50: 17.9 µM (inactive)
[18]
  GI50: 4.02 µM (inactive)
